Common to all, as to experiment: In vitro antibacterial activity, broth microdilution MIC90
Assay type in all cases: cell-based
A general note: Dilution methods test growth across graded concentrations, often in twofold steps.

In assay [1] the test system is Methicillin Resistant Staphylococcus epidermidis. Here is the method: (§1) MIC90 was measured by broth microdilution method based on CLSI standards [reference: Clinical and Laboratory Standards Institute Document. (2000) Methods for Dilution Antimicrobial Susceptibility Test for Bacteria that Grow Aerobically-Fifth Edition: M7-A5. CLSI, Villanova, Pa.].
(§2) Activities of 12 strains including Staphylococcus aureus, Methicillin Resistant Staphylococcus aureus, Staphylococcus epidermidis, Methicillin Resistant Staphylococcus epidermidis, Enterococcus faecalis, Vancomycin Resistant Enterococcus faecalis, Linezolid and Vancomycin Resistant Enterococcus faecalis, Enterococcus faecium, Vancomycin Resistant Enterococcus faecium, Linezolid and Vancomycin Resistant Enterococcus faecium, and Moraxella catarrhalis, were measured, and results are shown in Table 1 below.
(§3) The final concentration of test material in the antibacterial test was from 0.063 μg/mL (minimum) to 128 μg/mL (maximum), and the final concentration of DMSO used as an excipient was 2.5% (V/V). Linezolid represented by Formula B below (manufactured by Pfizer) was used as a control and bacterial activity thereof was compared with those of the test materials.

The next assay concerns Enterococcus faecalis. As for the experimental part:
as §1, §2, §3

For assay [2], the system named is Vancomycin Resistant Enterococcus faecalis. As for the experimental part:
as §1, §2, §3

A further assay relates to Staphylococcus aureus. Here is the method: as §1, §2, §3
In assay [3] the test system is Staphylococcus epidermidis. Here is the method: as §1, §2, §3
For assay [4], the system named is Linezolid and Vancomycin Resistant Enterococcus faecium (strain 11). Here is the method:
as §1, §2, §3

In a further assay the test system is Enterococcus faecium. As for the experimental part: as §1, §2, §3
Assay [5] relates to Linezolid and Vancomycin Resistant Enterococcus faecalis. As for the experimental part:
as §1, §2, §3

The test system of assay [6] is Linezolid and Vancomycin Resistant Enterococcus faecium (strain 10). Here is the method: as §1, §2, §3
Another assay has as its system Moraxella catarrhalis. Here is the method:
as §1, §2, §3

Assay [7] has as its system Methicillin Resistant Staphylococcus aureus. Here is the method: as §1, §2, §3
For assay [8], the system named is Vancomycin Resistant Enterococcus faecium. As for the experimental part:
as §1, §2, §3

Where [9] appears, read: Staphylococcus epidermidis, strain 4, S. epidermidis MR, read-out: MIC90.
Setting [10] is: Enterococcus faecalis, strain 5, E. faecalis, read-out: MIC90.
Where [11] appears, read: Enterococcus faecalis, strain 6, E. faecalis VanA, read-out: MIC90.
The mark [12] stands for this setting: Staphylococcus aureus, strain 1, S. aureus, read-out: MIC90.
The mark [13] stands for this setting: Staphylococcus epidermidis, strain 3, S. epidermidis, read-out: MIC90.
Where [14] appears, read: Enterococcus faecium, strain 11, E. faecium VanA LR, read-out: MIC90.
Where [15] appears, read: Enterococcus faecium, strain 8, E. faecium, read-out: MIC90.
Setting [16] is: Enterococcus faecalis, strain 7, E. faecalis VanA LR, read-out: MIC90.
Setting [17] is: Enterococcus faecium, strain 10, E. faecium VanA LR, read-out: MIC90.
The mark [18] stands for this setting: Moraxella catarrhalis, strain 12, M. catarrhalis, read-out: MIC90.
[19] abbreviates: Staphylococcus aureus, strain 2, S. aureus MR, read-out: MIC90.
Where [20] appears, read: Enterococcus faecium, strain 9, E. faecium VanA, read-out: MIC90.

Converted amounts (≈) assume the structure as drawn. Read-outs that look alike come from different tables or passages of the source.

7 compounds from patent US8846669B2, “Oxazolidinone derivative and medical composition containing same” (Legochem Biosciences, Inc., priority 2011, dated 2014) can be followed below.

By MIC90 is commonly meant the lowest concentration that inhibits either 90% of growth or 90% of the strains tested, depending on the study.

In the case of `O=C(C(O)CO)N1CCN(c2ccc(-c3ccc(N4C[C@H](Cn5ccnn5)OC4=O)cc3F)cn2)C=N1` (stereo partly drawn) [Compound 37], the MIC90 was found to be 2 µg/mL (≈ 3.92 µM) in [1] (Staphylococcus epidermidis); 1 µg/mL (≈ 1.96 µM) in the assay on Enterococcus faecalis (Enterococcus faecalis); 1 µg/mL (≈ 1.96 µM) in assay [2] (Enterococcus faecalis); 0.5 µg/mL (≈ 0.979 µM) against Staphylococcus aureus (Staphylococcus aureus); 1 µg/mL (≈ 1.96 µM) in assay [3] (Staphylococcus epidermidis); 8 µg/mL (≈ 15.7 µM) in [4] (Enterococcus faecium). The MIC90 against Enterococcus faecium (Enterococcus faecium) was determined as 1 µg/mL (≈ 1.96 µM); in [5] (Enterococcus faecalis), 8 µg/mL (≈ 15.7 µM); in assay [6] (Enterococcus faecium), 8 µg/mL (≈ 15.7 µM); against Moraxella catarrhalis (Moraxella catarrhalis), 8 µg/mL (≈ 15.7 µM); in [7] (Staphylococcus aureus), 1 µg/mL (≈ 1.96 µM); in assay [8] (Enterococcus faecium) it was 1 µg/mL (≈ 1.96 µM).

In the case of `Cl.NCC(=O)N1CCN(c2ccc(-c3ccc(N4C[C@H](COc5ccon5)OC4=O)cc3F)cn2)C=N1` [Compound 48], the MIC90 in [1] (strain 4, S. epidermidis MR) was determined as 4 µg/mL; in the assay on Enterococcus faecalis (strain 5, E. faecalis) it was 4 µg/mL; in assay [2] (strain 6, E. faecalis VanA), 4 µg/mL; against Staphylococcus aureus (strain 1, S. aureus), 0.5 µg/mL; in [3] (strain 3, S. epidermidis) it was 1 µg/mL; in assay [4] (strain 11, E. faecium VanA LR), 32 µg/mL. For the same compound, the MIC90 in the assay with Enterococcus faecium (strain 8, E. faecium) was found to be 1 µg/mL; in [5] (strain 7, E. faecalis VanA LR), 32 µg/mL; in [6] (strain 10, E. faecium VanA LR), 16 µg/mL; in the assay on Moraxella catarrhalis (strain 12, M. catarrhalis) it was 32 µg/mL; in [7] (strain 2, S. aureus MR), 1 µg/mL; in assay [8] (strain 9, E. faecium VanA) it was 2 µg/mL.

With `CNC(=O)N1CCN(c2ccc(-c3ccc(N4C[C@H](Cn5ccnn5)OC4=O)cc3F)cn2)C=N1` [Compound 34], the MIC90 in [1] (Staphylococcus epidermidis) turned out to be 1 µg/mL (≈ 2.09 µM); against Enterococcus faecalis (Enterococcus faecalis), 0.5 µg/mL (≈ 1.04 µM); in assay [2] (Enterococcus faecalis), 0.5 µg/mL (≈ 1.04 µM); in the assay with Staphylococcus aureus (Staphylococcus aureus) it was 0.25 µg/mL (≈ 0.521 µM); in assay [3] (Staphylococcus epidermidis) it was 0.5 µg/mL (≈ 1.04 µM); in [4] (Enterococcus faecium) it was 4 µg/mL (≈ 8.34 µM). Moreover, the MIC90 against Enterococcus faecium (Enterococcus faecium) was 0.25 µg/mL (≈ 0.521 µM); in assay [5] (Enterococcus faecalis) it was 2 µg/mL (≈ 4.17 µM); in [6] (Enterococcus faecium) it was 2 µg/mL (≈ 4.17 µM); against Moraxella catarrhalis (Moraxella catarrhalis), 2 µg/mL (≈ 4.17 µM); in assay [7] (Staphylococcus aureus), 0.5 µg/mL (≈ 1.04 µM); in assay [8] (Enterococcus faecium) it was 0.5 µg/mL (≈ 1.04 µM).

As for `CCN1CCN(c2ccc(-c3ccc(N4C[C@H](CO)OC4=O)cc3F)cn2)C=N1` [Compound 29], the MIC90 came out at 8 µg/mL (≈ 20 µM) in assay [1] (Staphylococcus epidermidis); 16 µg/mL (≈ 40.1 µM) in the assay on Enterococcus faecalis (Enterococcus faecalis); 16 µg/mL (≈ 40.1 µM) in [2] (Enterococcus faecalis); 8 µg/mL (≈ 20 µM) against Staphylococcus aureus (Staphylococcus aureus); 4 µg/mL (≈ 10 µM) in assay [3] (Staphylococcus epidermidis); 64 µg/mL (≈ 160 µM) in assay [4] (Enterococcus faecium). The MIC90 with Enterococcus faecium (Enterococcus faecium) came out at 8 µg/mL (≈ 20 µM); in assay [5] (Enterococcus faecalis), 64 µg/mL (≈ 160 µM); in assay [6] (Enterococcus faecium), 64 µg/mL (≈ 160 µM); against Moraxella catarrhalis (Moraxella catarrhalis) it was 32 µg/mL (≈ 80.1 µM); in assay [7] (Staphylococcus aureus), 8 µg/mL (≈ 20 µM); in assay [8] (Enterococcus faecium), 8 µg/mL (≈ 20 µM).

Take `NCC(=O)N1CCN(c2ccc(-c3ccc(N4C[C@H](CNc5ccon5)OC4=O)cc3F)cn2)C=N1` [Compound 42]: the MIC90 in [1] (strain 4, S. epidermidis MR) came to 2 µg/mL (≈ 4.04 µM); in the assay with Enterococcus faecalis (strain 5, E. faecalis), 0.5 µg/mL (≈ 1.01 µM); in assay [2] (strain 6, E. faecalis VanA) it was 1 µg/mL (≈ 2.02 µM); with Staphylococcus aureus (strain 1, S. aureus), 0.25 µg/mL (≈ 0.506 µM); in assay [3] (strain 3, S. epidermidis), 0.5 µg/mL (≈ 1.01 µM); in assay [4] (strain 11, E. faecium VanA LR), 4 µg/mL (≈ 8.09 µM). Further, the MIC90 against Enterococcus faecium (strain 8, E. faecium) stood at 0.125 µg/mL (≈ 0.253 µM); in [5] (strain 7, E. faecalis VanA LR), 2 µg/mL (≈ 4.04 µM); in assay [6] (strain 10, E. faecium VanA LR) it was 4 µg/mL (≈ 8.09 µM); against Moraxella catarrhalis (strain 12, M. catarrhalis) it was 2 µg/mL (≈ 4.04 µM); in assay [7] (strain 2, S. aureus MR) it was 0.5 µg/mL (≈ 1.01 µM); in [8] (strain 9, E. faecium VanA) it was 0.5 µg/mL (≈ 1.01 µM).

`CC(=O)NC[C@H]1CN(c2ccc(-c3ccc(N4C=NOCC4)nc3)c(F)c2)C(=O)O1` [Compound 57]: the MIC90 was 0.5 µg/mL (≈ 1.21 µM) in [1] (setting [9]); 0.25 µg/mL (≈ 0.605 µM) with Enterococcus faecalis (setting [10]); 0.25 µg/mL (≈ 0.605 µM) in assay [2] (setting [11]); 0.25 µg/mL (≈ 0.605 µM) with Staphylococcus aureus (setting [12]); 0.25 µg/mL (≈ 0.605 µM) in assay [3] (setting [13]); 2 µg/mL (≈ 4.84 µM) in [4] (setting [14]). Further, the MIC90 in the assay on Enterococcus faecium (setting [15]) was 0.125 µg/mL (≈ 0.302 µM); in assay [5] (setting [16]) it was 1 µg/mL (≈ 2.42 µM); in [6] (setting [17]), 1 µg/mL (≈ 2.42 µM); with Moraxella catarrhalis (setting [18]), 2 µg/mL (≈ 4.84 µM); in [7] (setting [19]) it was 0.5 µg/mL (≈ 1.21 µM); in assay [8] (setting [20]), 0.125 µg/mL (≈ 0.302 µM).

With `CC(=O)NC[C@H]1CN(c2ccc(-c3ccc(N4CCN(C=O)C=N4)nc3)c(F)c2)C(=O)O1` [Compound 52], the MIC90 in assay [1] (setting [9]) was determined as 0.5 µg/mL (≈ 1.14 µM); in the assay on Enterococcus faecalis (setting [10]) it was 0.5 µg/mL (≈ 1.14 µM); in assay [2] (setting [11]) it was 0.5 µg/mL (≈ 1.14 µM); with Staphylococcus aureus (setting [12]), 0.25 µg/mL (≈ 0.568 µM); in [3] (setting [13]) it was 0.25 µg/mL (≈ 0.568 µM); in [4] (setting [14]), 1 µg/mL (≈ 2.27 µM). Further, the MIC90 in the assay on Enterococcus faecium (setting [15]) was 0.5 µg/mL (≈ 1.14 µM); in assay [5] (setting [16]) it was 1 µg/mL (≈ 2.27 µM); in assay [6] (setting [17]), 1 µg/mL (≈ 2.27 µM); in the assay with Moraxella catarrhalis (setting [18]), 4 µg/mL (≈ 9.08 µM); in assay [7] (setting [19]) it was 0.5 µg/mL (≈ 1.14 µM); in assay [8] (setting [20]), 0.5 µg/mL (≈ 1.14 µM).
